Test [1] addresses T1, human PPARγ2 (Homo sapiens, UniProt P37231).
T1 construct: the amino acids 182 to 505 of human PPARγ2; expressed in transfected cells; host or cells: COS7 cells (African green monkey kidney)
T1 sequence (P37231 182-505): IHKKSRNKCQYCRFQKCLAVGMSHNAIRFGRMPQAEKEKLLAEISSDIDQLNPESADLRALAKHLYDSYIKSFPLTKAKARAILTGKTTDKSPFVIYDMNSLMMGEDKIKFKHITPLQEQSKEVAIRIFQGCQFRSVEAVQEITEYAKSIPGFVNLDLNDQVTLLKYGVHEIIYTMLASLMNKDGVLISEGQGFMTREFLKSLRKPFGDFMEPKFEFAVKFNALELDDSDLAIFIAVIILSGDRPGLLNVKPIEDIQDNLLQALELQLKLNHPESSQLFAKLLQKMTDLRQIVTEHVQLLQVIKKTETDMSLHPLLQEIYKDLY
Briefly: PPARγ activation activity, Gal4-PPARγ2 LBD luciferase transfection assay using COS7 cells. Format: cell-based. To be noted: for pEC50: 16 hours, luciferase activity relative to rosiglitazone = 100%; for Emax: COS-7, 16 h, maximum activity strength relative to the maximum activity of rosiglitazone, read-out: % MAX vs Rosiglitazone. The procedure: The agonistic activity of the compounds of the invention on PPARγ was measured based on the transfection assay using COS7 cells (DS Pharma Biomedical Co., Ltd., Osaka, Japan), which are the cell line derived from the kidney of the African green monkey. COS7 cells were cultured under 5% CO2 concentration, and DMEM medium containing 10% fetal bovine serum, glutamic acid, and antibiotics was used as a medium.
As an expression vector, a chimera in which DNA binding domain of Gal4, which is a yeast transcription factor, and ligand binding domain of human PPARγ2 are fused, i.e., a fused product between the amino acids 1 to 147 of Gal4 transcription factor and the amino acids 182 to 505 of human PPARγ2, was used. Furthermore, as a reporter vector, a firefly luciferase containing five copies of Gal4 recognition sequence in the promoter region was used. Plasmid transfection to the cells was performed according to a method which uses jetPEI (trade name, manufactured by Funakoshi Co., Ltd., Tokyo, Japan). Furthermore, β-galactosidase expression vector was employed as an internal standard.
After the transfection of the cells, the medium was replaced with a DMEM medium (containing 1% serum) added with the compound, and the cells were further cultured for 16 hours. After that, the luciferase activity and β-galactosidase activity in the cell lysis solution were measured.
For the present test, dimethyl sulfoxide (DMSO) was used for dissolution and dilution of the test compounds, and during the cell treatment, the DMSO concentration in DMEM medium (containing 1% serum) was adjusted to 0.1%. As a positive compound, rosiglitazone (trade name, manufactured by ALEXIS Corporation, Switzerland) was used. The luciferase activity (%) of the test compounds (1 to 30 μmol/L) was calculated when the luciferase activity of rosiglitazone (3 to 10 μmol/L) is 100% and the luciferase activity in the absence of the test compound is 0%. The 50% effective concentration of the test compound (EC50, 50% effect concentration) was calculated by using SAS Preclinical Package Ver5.0 (trade name, manufactured by SAS institute Japan Co., Tokyo, Japan), which is a statistical analysis program.

The target in test [2] is T2, angiotensin II type 1 receptor (Oryctolagus cuniculus, UniProt P34976).
T2 construct: By using a specimen of isolated rabbit blood vessels; from tissue; host or cells: rabbit (New Zealand White) thoracic aorta ring
T2 sequence (P34976 1-359): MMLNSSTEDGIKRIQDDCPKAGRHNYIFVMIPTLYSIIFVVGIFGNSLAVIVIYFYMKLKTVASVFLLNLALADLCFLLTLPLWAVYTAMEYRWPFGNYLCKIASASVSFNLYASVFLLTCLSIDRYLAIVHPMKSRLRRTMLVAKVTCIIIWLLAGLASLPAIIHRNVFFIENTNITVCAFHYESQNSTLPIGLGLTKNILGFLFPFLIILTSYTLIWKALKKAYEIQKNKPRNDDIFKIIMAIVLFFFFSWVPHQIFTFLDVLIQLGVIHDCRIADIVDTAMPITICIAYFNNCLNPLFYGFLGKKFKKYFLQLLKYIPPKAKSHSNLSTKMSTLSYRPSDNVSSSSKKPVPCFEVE
Briefly: Angiotensin II antagonistic activity in isolated rabbit blood vessels (thoracic aorta ring contraction). To be noted: angiotensin II (10 nM)-induced contraction. The procedure:
By using a specimen of isolated rabbit blood vessels, antagonistic activity of the compounds of the invention against angiotensin II type 1 receptor was estimated from a dose-response curve of angiotensin II-induced blood vessel contraction.
During the measurement, the inside temperature of the magnus bath was maintained at 37° C. and the bath was continuously ventilated with a sufficient amount of mixed gas (95% O2 and 5% CO2). The angiotensin II-induced contraction was converted into a relative value (%) that is based on the angiotensin II (10 nM)-induced contraction in the absence of the compounds of each example. From the concentration-response curve obtained therefrom, 50% inhibition concentration (IC50 value) was calculated by using SAS Preclinical Package Ver5.0 (trade name, manufactured by SAS institute Japan Co., Tokyo, Japan), which is a statistical analysis program.

Test [3] deals with T1, human PPARγ2. Nature of the test: PPARγ activation activity, Gal4-PPARγ2 LBD luciferase transfection assay using COS7 cells. The test is classed as cell-based. As to conditions: maximum activity relative to rosiglitazone.

pEC50, pIC50: −log10 of the molar value. Read-outs that look alike come from different tables or passages of the source.

For `CCCCc1nc(C)n(-c2ncc(OC)cn2)c(=O)c1Cc1cc(CCC)c(OC(C(=O)O)c2ccccc2)c(CCC)c1` (single isomer, unassigned; (-)) [Example 16, (−)-2-[4-[{4-butyl-1-(5-methoxypyrimidin-2-yl)-2-methyl-6-oxo-1,6-dihydropyrimidin-5-yl}methyl]-2,6-dipropylphenoxy]-2-phenylacetic acid], the pEC50 at human PPARγ2 [1] (COS7 cells, read-out: EC50) was 5.84. For the same compound, the Emax at human PPARγ2 [1] came out at 44.4%. Further, the pIC50 in test [2] was 7.24.

`CCCCc1nc(C)n(-c2ccccn2)c(=O)c1Cc1cc(CCC)c(OC(C(=O)O)c2ccccc2)c(CCC)c1` (stereo not drawn) [Example 1, 2-[4-[{4-butyl-2-methyl-6-oxo-1-(pyridin-2-yl)-1,6-dihydropyrimidin-5-yl}methyl]-2,6-dipropylphenoxy]-2-phenylacetic acid]: the pEC50 on human PPARγ2 [1] (COS7 cells, read-out: EC50) was 5.51. Further, the Emax on human PPARγ2 [1] is 32%. In test [2], this compound gave a pIC50 of 6.28.

In the case of `CCCCc1nc(C)n(-c2ccccn2)c(=O)c1Cc1cc(CCC)c(OC(C(=O)O)c2ccc(Cl)cc2)c(CCC)c1` (stereo not drawn) [Example 9], on human PPARγ2 [1] (COS7 cells, read-out: EC50), the pEC50 is 6.27. The Emax at human PPARγ2 [1] turned out to be 47%. Besides, the “maximum activity compared with that of termisartan” value (shortened to “maximum activity compared with that”) on human PPARγ2 [3] is on record as “equal to or more than that of termisartan”.

For `CCCCc1nc(C)n(-c2ccc(OCc3ccccc3)cc2)c(=O)c1Cc1cc(CCC)c(OC(C(=O)O)c2ccccc2)c(CCC)c1` (stereo not drawn) [Example 12, 2-[4-[[1-{4-(benzyloxy)phenyl}-4-butyl-2-methyl-6-oxo-1,6-dihydropyrimidin-5-yl]methyl]-2,6-dipropylphenoxy]-2-phenyla cetic acid], the pEC50 on human PPARγ2 [1] (COS7 cells, read-out: EC50) was 6.36. On human PPARγ2 [1], the Emax turned out to be 57.5%. The “maximum activity compared with that” value on human PPARγ2 [3] is on record as “equal to or more than that of termisartan”.

For the compound `CCCCc1nc(C)n(-c2ccc(OC(C)C)cc2)c(=O)c1Cc1cc(CCC)c(OC(C(=O)O)c2ccccc2)c(CCC)c1` (stereo not drawn) [Example 14], the pEC50 on human PPARγ2 [1] (COS7 cells, read-out: EC50) is 6.22. Besides, the Emax on human PPARγ2 [1] was 63%. In addition, the “maximum activity compared with that” value at human PPARγ2 [3] is “equal to or more than that of termisartan”.

In the case of `CCCCc1nc(C)n(-c2ncc(OC)cn2)c(=O)c1Cc1cc(CCC)c(OC(C(=O)O)c2ccccc2)c(CCC)c1` (stereo not drawn) [Example 15], at human PPARγ2 [1] (COS7 cells, read-out: EC50), the negative-log EC50 (pEC50) is 5.57. The Emax on human PPARγ2 [1] was determined as 47.2%. In addition, in test [2], the negative-log IC50 (pIC50) is 7.04. Also, on human PPARγ2 [3], the “maximum activity compared with that” value is recorded as “equal to or more than that of termisartan”.

As for `CCCCc1nc(C)n(-c2ncc(OCC)cn2)c(=O)c1Cc1cc(CCC)c(OC(C(=O)O)c2ccccc2)c(CCC)c1` (stereo not drawn) [Example 20], on human PPARγ2 [1] (COS7 cells, read-out: EC50), the pEC50 was 5.59. In addition, the Emax at human PPARγ2 [1] worked out at 58.6%. This compound also gave a negative-log IC50 (pIC50) in test [2] of 6.94.

For `CCCCc1nc(C)n(Cc2ccccc2)c(=O)c1Cc1cc(CCC)c(OC(C(=O)O)c2ccccc2)c(CCC)c1` (stereo not drawn) [Example 28, 2-[4-{(1-benzyl-4-butyl-2-methyl-6-oxo-1,6-dihydropyrimidin-5-yl)methyl}-2,6-dipropylphenoxy]-2-phenylacetic acid], the pEC50 on human PPARγ2 [1] (COS7 cells, read-out: EC50) was 6.07. The Emax on human PPARγ2 [1] was determined as 21.3%. For the same compound, the pIC50 in test [2] is 6.14.

With `CCCCc1nc(C)n(CC2CCCCC2)c(=O)c1Cc1cc(CCC)c(OC(C(=O)O)c2ccccc2)c(CCC)c1` (stereo not drawn) [Example 30, 2-[4-[(4-butyl-1-(cyclohexylmethyl)-2-methyl-6-oxo-1,6-dihydropyrimidin-5-yl}methyl]-2,6-dipropylphenoxy]-2-phenylacet ic acid], the negative logarithm of the EC50 (pEC50) at human PPARγ2 [1] (COS7 cells, read-out: EC50) is 6.55. Moreover, the Emax at human PPARγ2 [1] is 28.5%. The compound also had a pIC50 in test [2] of 6.08.

With `CCCCc1nc(C)n(CCOC)c(=O)c1Cc1cc(CCC)c(OC(C(=O)O)c2ccccc2)c(CCC)c1` (stereo not drawn) [Example 33, 2-[4-[{4-butyl-1-(2-methoxyethyl)-2-methyl-6-oxo-1,6-dihydropyrimidin-5-yl}methyl]-2,6-dipropylphenoxy]-2-phenylacetic acid], the pEC50 at human PPARγ2 [1] (COS7 cells, read-out: EC50) was 5.57. Further, in test [2], the pIC50 is 6.60.

For `CCCc1nc2c(C)cc(-c3nc4ccccc4n3C)cc2n1Cc1ccc(-c2ccccc2C(=O)O)cc1` [telmisartan, reference compound], the Emax at human PPARγ2 [1] is 30 to 50%. The negative logarithm of the EC50 (pEC50) on human PPARγ2 [1] (EC50, COS7 cells) is 5.30 to 6.00. This compound also had a pIC50 in test [2] of 7.60.

The values above are taken from US20120046308A1, “NOVEL ALPHA-PHENOXYBENZENEACETIC ACID DERIVATIVE AND PHARMACEUTICAL PREPARATION COMPRISING SAME” (KOWA COMPANY, LTD., priority 2009, published 2012).
